Earlier results as cited in US20220257614A1, “USE OF 12-LIPOXYGENASE INHIBITORS IN THE TREATMENT OF COVID-19” (New York Medical College, priority 2021, published 2022).

Test system: human islets
Conditions: in vitro; background statement

COc1cccc(CNc2ccc(S(=O)(=O)Nc3nc4ccccc4s3)cc2)c1O [ML-355]
protection of human islets from inflammatory injury: protect human islets from inflammatory injury
